Results as given in publication PMC6590375 (Journal of Clinical Pharmacology, 2019).
Like-named read-outs stand apart in the source and are kept apart here.

Tests used:
[1] = cited from earlier work
[2] = type: in vivo, human
[3] = type: in vivo, human; conditions: for AUCinf central value, higher than in subjects with normal renal function: regression analyses
[4] = human, plasma, oral
[5] = single 15 mg dose, all subjects
[6] = mild renal impairment (N = 6), single 15-mg extended-release dose, fasting
[7] = normal renal function (N = 6), single 15-mg extended-release dose, fasting
[8] = severe renal impairment (N = 6), single 15-mg extended-release dose, fasting

CC[C@@H]1CN(C(=O)NCC(F)(F)F)C[C@@H]1c1cnc2cnc3[nH]ccc3n12 [Upadacitinib]
Immediate-release dose eliminated in urine as unchanged upadacitinib ([1]; immediate-release formulation): Approximately 20%
Dose proportionality of plasma exposures ([1]; over the range of immediate-release or extended-release doses evaluated in clinical studies): approximately dose‐proportional
Adverse events ([2]; one subject in the mild renal impairment group, mild, reasonable possibility of being related to study drug, no other adverse events reported): diarrhea and upper respiratory infection
Physical exam, vital signs, electrocardiogram and laboratory findings [2, 5]: no clinically significant physical exam findings, vital sign measurements, electrocardiogram abnormalities, or laboratory test abnormalities
Tolerability [2, 5]: well tolerated
CL renal ([3]; both, human, urine and plasma, oral, 15 mg): 32.7 mL/min
fe (fraction of dose excreted unchanged in urine), arithmetic mean ± SD [3, 6]: 7.03 ± 3.05%
fe (fraction of dose excreted unchanged in urine), geometric mean [3, 6]: 6.51%
CLR (renal clearance), arithmetic mean ± SD [3, 7]: 5.64 ± 2.13 L/h
fe (fraction of dose excreted unchanged in urine), arithmetic mean ± SD [3, 7]: 9.91 ± 4.05%
fe (fraction of dose excreted unchanged in urine), geometric mean [3, 7]: 9.24%
AUCinf central value, higher than in subjects with normal renal function ([3]; mild renal impairment): 18%
AUCinf central value, higher than in subjects with normal renal function ([3]; moderate renal impairment): 33%
AUCinf central value, higher than in subjects with normal renal function ([3]; severe renal impairment): 44%
fe (fraction of dose excreted unchanged in urine), arithmetic mean ± SD [3, 8]: 2.48 ± 1.62%
fe (fraction of dose excreted unchanged in urine), geometric mean [3, 8]: 2.10%
CL renal [4]: ~400 mL/min
